Drawing on US10005773B2, “1-(4-pyrimidinyl)-1H-pyrrolo[3,2-c]pyridine derivatives as NIK inhibitors” (Janssen Pharmaceutica NV, priority 2013, dated 2018), this text covers EC50 and IC50 for 17 compounds.

One assay concerns JJN-3 cells. Description: Biological Assay C: antiproliferative activity on JJN-3 cells (CellTiter-Glo). The format is cell-based. Conditions: Homo sapiens, 72 hr treatment. How it is done:
(§1) Determination of Antiproliferative Activity on LP-1, L-363 and JJN-3 Cells
(§2) All compounds tested were dissolved in DMSO and further dilutions were made in culture medium. Final DMSO concentration was 0.3% (v/v) in cell proliferation assays. Viability was assessed using CellTiter-Glo cell viability assay kit (Promega). The human LP-1, L-363 and JJN-3 cells (DSMZ) were cultured in RPMI 1640 medium supplemented with 2 mM L-glutamine, and 10% fetal calf serum (PAA). Cells were routinely kept as suspension cells at 37° C. in a humidified 5% CO2 atmosphere. Cells were passaged at a seeding density of 0.2×10^6/ml twice a week. Cells were seeded in black tissue culture treated 96-well plates (Perkin Elmer). Densities used for plating ranged from 2,000 to 6,000 cells per well in a total volume of 75 μl medium. After twenty four hours, drugs and/or solvents were added (25 μl) to a final volume of 100 μl. Following 72 hr of treatment plates were removed from the incubator and allowed to equilibrate to room temperature for approx 10 min. 100 μl CellTiter-Glo reagent was added to each well that was then covered (Perkin Elmer Topseal) and shaken on plate shaker for 10 min. Luminescence was measured on a HTS Topcount (Perkin Elmer). Within an experiment, the results for each treatment were the mean of 2 replicate wells. For initial screening purposes, compounds were tested using a 9 point dilution curve (serial 1:3 dilutions). For each experiment, controls (containing no drug) and a blank incubation (containing cells read at the time of compound addition) were run in parallel. The blank value was subtracted from all control and sample values. For each sample, the mean value for cell growth (in relative light units) was expressed as a percentage of the mean value for cell growth of the control.

The target in assay [1] is T1, Recombinant Human NF-kappaB-Inducing Kinase (NIK/MAP3K14) (Homo sapiens, UniProt Q99558). The assay is described as follows: Biological Assay A2: inhibition of auto-phosphorylation of recombinant human NIK/MAP3K14 (AlphaScreen). The format is biochemical. Conditions: 25 microM ATP, 0.2 nM NIK/MAP3K14, 1 h at 25° C., averaged over all batches, read-out: Alpha-Screen IC50. How it is done: Inhibition of Auto-Phosphorylation of Recombinant Human NF-kappaB-Inducing Kinase (NIKIMAP3K14) Activity (AlphaScreen®)
T1 sequence (Q99558 whole entry): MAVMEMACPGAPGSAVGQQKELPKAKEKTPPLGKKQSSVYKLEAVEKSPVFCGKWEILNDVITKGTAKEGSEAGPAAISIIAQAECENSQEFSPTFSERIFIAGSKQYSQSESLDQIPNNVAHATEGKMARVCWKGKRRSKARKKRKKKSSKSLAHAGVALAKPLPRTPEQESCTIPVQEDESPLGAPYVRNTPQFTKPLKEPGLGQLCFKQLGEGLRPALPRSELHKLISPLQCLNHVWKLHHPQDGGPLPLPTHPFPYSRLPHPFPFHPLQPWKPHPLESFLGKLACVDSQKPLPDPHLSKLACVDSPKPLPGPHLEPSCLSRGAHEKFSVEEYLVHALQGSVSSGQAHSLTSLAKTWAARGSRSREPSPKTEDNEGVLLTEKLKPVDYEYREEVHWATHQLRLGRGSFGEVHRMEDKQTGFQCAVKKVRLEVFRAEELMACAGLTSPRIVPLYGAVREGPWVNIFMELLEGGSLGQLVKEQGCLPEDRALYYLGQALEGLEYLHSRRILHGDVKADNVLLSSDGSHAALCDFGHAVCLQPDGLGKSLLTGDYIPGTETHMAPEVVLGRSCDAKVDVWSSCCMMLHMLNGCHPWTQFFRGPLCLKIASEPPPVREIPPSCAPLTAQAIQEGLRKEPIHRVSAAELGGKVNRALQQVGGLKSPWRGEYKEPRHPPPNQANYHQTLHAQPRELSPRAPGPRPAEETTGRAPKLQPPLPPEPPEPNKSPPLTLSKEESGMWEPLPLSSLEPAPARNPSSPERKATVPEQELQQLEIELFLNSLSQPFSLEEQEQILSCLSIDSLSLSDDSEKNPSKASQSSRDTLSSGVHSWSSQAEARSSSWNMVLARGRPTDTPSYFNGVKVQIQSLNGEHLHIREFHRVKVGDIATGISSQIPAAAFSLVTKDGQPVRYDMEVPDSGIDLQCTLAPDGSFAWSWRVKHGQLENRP
NIK/MAP3K14 auto-phosphorylation activity was measured using the AlphaScreen® (ascreen) format (Perkin Elmer). All compounds tested were dissolved in dimethyl sulfoxide (DMSO) and further dilutions were made in assay buffer. Final DMSO concentration was 1% (v/v) in assays. Assay buffer was 50 mM Tris pH 7.5 containing 1 mM EGTA (ethylene glycol tetraacetic acid), 1 mM DTT (dithiothreitol), 0.1 mM Na3VO4, 5 mM MgCl2, 0.01% Tween® 20. Assays were carried out in 384 well Alphaplates (Perkin Elmer). Incubations consisted of compound, 25 microM Adenosine-5′-triphosphate (ATP), and 0.2 nM NIK/MAP3K14. Incubations were initiated by addition of GST-tagged NIK/MAP3K14 enzyme, carried out for 1 h at 25° C. and terminated by addition of stop buffer containing anti-phospho-IKK Ser176/180 antibody. Protein A Acceptor and Glutathione-Donor beads were added before reading using an EnVision® Multilabel Plate Reader (Perkin Elmer). Signal obtained in the wells containing blank samples was subtracted from all other wells and IC50's were determined by fitting a sigmoidal curve to % inhibition of control versus Log10 compound concentration.

Assay [2] addresses T1, Recombinant Human NF-kappaB-Inducing Kinase (NIK/MAP3K14). The assay is described as follows: Biological Assay A: inhibition of recombinant human NIK/MAP3K14 activity (MSD, MBP substrate). Particulars: 25 μM ATP, 10 nM NIK/MAP3K14, 1 h at 25° C.; averaged over all batches; read-out: Biochemical (MSD MBP) IC50. On the procedure: Inhibition of Recombinant Human NF-kappaB-Inducing Kinase (NIKIMAP3K14) Activity
Assay buffer was 50 mM Tris pH 7.5 containing 1 mM ethylene glycol tetraacetic acid (EGTA), 1 mM dithiothreitol (DTT), 0.1 mM Na3VO4, 5 mM MgCl2, 0.01% Tween® 20. Assays were carried out in 384 well Mesoscale high binding plates which had been coated with myelin basic protein (MBP) and blocked with bovine serum albumin to prevent non-specific protein binding. All compounds tested were dissolved in dimethyl sulfoxide (DMSO) and further dilutions were made in assay buffer. Final DMSO concentration was 1% (v/v) in assays. Incubations consisted of compound (1% DMSO in control and blank wells), 25 μM Adenosine-5′-triphosphate (ATP), and 10 nM NIK/MAP3K14 substituting enzyme with buffer in the blank wells. Incubations were carried out for 1 h at 25° C. and were followed by washing and sequential incubation with rabbit anti-phospho-MBP and anti-rabbit Ig Sulfotag antibody before reading bound Sulfotag on a Mesoscale Discovery. Signal obtained in the wells containing blank samples was subtracted from all other wells and IC50's were determined by fitting a sigmoidal curve to % inhibition of control versus Log10 compound concentration.

Assay [3] deals with P-IKKα levels in L363 cells. Description: Biological Assay B: effect of compounds on P-IKKα levels in L363 cells. The format is cell-based. Particulars: Homo sapiens, L-363, BAFF stimulated, 2 hr treatment, averaged over all batches, read-out: IKKα Cellular IC50. How it is done: Effect of Compounds on P-IKKα Levels in L363 Cells
All compounds tested were dissolved in DMSO and further dilutions were made in culture medium. Final DMSO concentration was 1% (v/v) in cell assays. The human L363 cells (ATCC) were cultured in RPMI 1640 medium supplemented with GlutaMax and 10% fetal calf serum (PAA). Cells were routinely maintained at densities of 0.2×10^6 cells per ml-1×10^6 cells per ml at 37° C. in a humidified 5% CO2 atmosphere. Cells were passaged twice a week splitting back to obtain the low density. Cells were seeded in 96 well plates (Nunc 167008) at 2×10^6 per ml media in a volume of 75 μl per well plus 25 μl 1 μg/ml recombinant human B-cell activating factor (BAFF/BLyS/TNFSF13B). Seeded cells were incubated at 37° C. in a humidified 5% CO2 atmosphere for 24 hr. Drugs and/or solvents were added (20 μl) to a final volume of 120 μl. Following 2 hr treatment plates were removed from the incubator and cell lysis was achieved by the addition of 30 μl 5× lysis buffer followed by shaking on a plate shaker at 4° C. for 10 min. At the end of this incubation lysed cells were centrifuged at 800×g for 20 min at 4° C. and the lysate was assessed for P-IKKα levels by sandwich immuno-assay carried out in anti-rabbit antibody coated Mesoscale plates. Within an experiment, the results for each treatment were the mean of 2 replicate wells. For initial screening purposes, compounds were tested using an 8 point dilution curve (serial 1:3 dilutions). For each experiment, controls (containing MG132 and BAFF but no test drug) and a blank incubation (containing MG132 and BAFF and 10 μM ADS125117, a test concentration known to give full inhibition) were run in parallel. The blank incubation value was subtracted from all control and sample values. To determine the IC50 a sigmoidal curve was fitted to the plot of % inhibition of control P-IKKα levels versus Log10 compound concentration.

In the next assay the test system is LP-1 cells. Description: Biological Assay C: antiproliferative activity on LP-1 cells (CellTiter-Glo). The class given is cell-based. Conditions: Homo sapiens, 72 hr treatment. How it is done:
as §1, §2

A further assay has as its system L-363 cells. The assay is described as follows: Biological Assay C: antiproliferative activity on L-363 cells (CellTiter-Glo). Particulars: Homo sapiens, 72 hr treatment. The format is cell-based. How it is done:
as §1, §2

As for `CNC(=O)c1cn(-c2ccnc(N)n2)c2cc(C#CC(C)(C)O)ncc12` [Compound 15], the figures for the EC50 in the assay with JJN-3 cells, in the assay with LP-1 cells and in the assay with L-363 cells were 3330 nM, greater than 30000 nM and 7180 nM, respectively. Besides, the IC50 in assay [1] worked out at 59 nM; in assay [2], 37 nM; in assay [3], 1310 nM.

Regarding `CC(CO)c1cn(-c2ccnc(N)n2)c2cc(C#CC(C)(C)O)ncc12` (stereo not drawn) [Compound 16], the EC50 came out at 157 nM in the assay on JJN-3 cells, 6120 nM in the assay on LP-1 cells and 354 nM in the assay with L-363 cells. The IC50 in assay [1] came out at 6.7 nM; in assay [2], 20 nM; in assay [3] it was 56 nM.

`CCCCOCc1cn(-c2ccnc(N)n2)c2cc(C#CC(C)(C)O)ncc12` [Compound 17]: the EC50 with JJN-3 cells stood at 333 nM; in the assay on LP-1 cells it was 460 nM; in the assay with L-363 cells, 464 nM. The values for the IC50 in assay [1], in assay [2] and in assay [3] were 259 nM, 82 nM and 199 nM, respectively.

Take `COCc1cn(-c2ccnc(N)n2)c2cc(C#CC(C)(C)O)ncc12` [Compound 18]: the EC50 in the assay with JJN-3 cells was determined as 313 nM; in the assay on LP-1 cells, 1330 nM; in the assay with L-363 cells, 247 nM. In addition, the IC50 turned out to be 20 nM in assay [1], 22 nM in assay [2] and 56 nM in assay [3].

Turning to `CC(C)(O)C#Cc1cc2c(cn1)c(C#N)cn2-c1ccnc(N)n1` [Compound 19], the EC50 in the assay on JJN-3 cells was found to be 1450 nM; in the assay with LP-1 cells it was 4660 nM; with L-363 cells it was 1840 nM. The IC50 turned out to be 54 nM in assay [1], 98 nM in assay [2] and 781 nM in assay [3].

Take `CC(C)(O)C#Cc1cc2c(cn1)c(CC#N)cn2-c1ccnc(N)n1` [Compound 20]: the results for the EC50 with JJN-3 cells, in the assay with LP-1 cells and with L-363 cells were 190 nM, 1280 nM and 319 nM, respectively. Moreover, the IC50 in assay [1] turned out to be 26 nM; in assay [2], 13 nM; in assay [3], 55 nM.

With `CCc1cn(-c2ccnc(N)n2)c2cc(C#CC(C)(C)O)ncc12` [Compound 21], the EC50 in the assay on JJN-3 cells came to 41 nM; in the assay on LP-1 cells it was 70 nM; in the assay with L-363 cells it was 44 nM. The figures for the IC50 in assay [1], in assay [2] and in assay [3] were 15 nM, 11 nM and 9.5 nM, respectively.

Consider `CC(C)c1cn(-c2ccnc(N)n2)c2cc(C#CC(C)(C)O)ncc12` [Compound 22], for which the EC50 is 49 nM in the assay on JJN-3 cells, 131 nM in the assay with LP-1 cells and 47 nM in the assay on L-363 cells. Moreover, the figures for the IC50 in assay [1], in assay [2] and in assay [3] were 16 nM, 6.5 nM and 16 nM, respectively.

On to `CN1CCC(c2cn(-c3ccnc(N)n3)c3cc(C#CC(C)(C)O)ncc23)CC1` [Compound 23], for which the EC50 with JJN-3 cells came out at 116 nM; in the assay with LP-1 cells it was 1920 nM; in the assay with L-363 cells it was 92 nM. Further, the IC50 was found to be 35 nM in assay [1], 33 nM in assay [2] and 87 nM in assay [3].

On to `CN1CCC(c2cn(-c3ccnc(N)n3)c3cc(C#CC4(O)CCCC4)ncc23)CC1` [Compound 24], for which the EC50 with JJN-3 cells was 779 nM; in the assay on LP-1 cells, 4240 nM; in the assay on L-363 cells, 512 nM. Also, the IC50 in assay [1] is 37 nM; in assay [2], 40 nM; in assay [3], 183 nM.

For the compound `CN1CCC(c2cn(-c3nc(N)ncc3F)c3cc(C#CC(C)(C)O)ncc23)CC1` [Compound 25], the values for the EC50 in the assay on JJN-3 cells, with LP-1 cells and with L-363 cells were 130 nM, 1040 nM and 105 nM, respectively. For the same compound, the IC50 was 95 nM in assay [1], 103 nM in assay [2] and 75 nM in assay [3].

In the case of `CC(C)(O)C#Cc1cc2c(cn1)c(CCO)cn2-c1ccnc(N)n1` [Compound 26], the EC50 was 182 nM with JJN-3 cells, 6940 nM in the assay on LP-1 cells and 823 nM in the assay with L-363 cells. Further, the IC50 is 11 nM in assay [1], 3.8 nM in assay [2] and 41 nM in assay [3].

In the case of `COCCc1cn(-c2ccnc(N)n2)c2cc(C#CC(C)(C)O)ncc12` [Compound 27], the EC50 with JJN-3 cells was 145 nM; with LP-1 cells, 448 nM; with L-363 cells it was 194 nM. Moreover, the IC50 in assay [1] turned out to be 33 nM; in assay [2], 31 nM; in assay [3] it was 48 nM.

With `CC(C)(O)C#Cc1cc2c(cn1)c(CCCO)cn2-c1ccnc(N)n1` [Compound 28], the EC50 in the assay with JJN-3 cells was 162 nM; with LP-1 cells, 4440 nM; in the assay on L-363 cells, 215 nM. In addition, the results for the IC50 in assay [1], in assay [2] and in assay [3] were 5.5 nM, 3.9 nM and 28 nM, respectively.

As to `CC(C)(O)C#Cc1cc2c(cn1)c(CCCO)cn2-c1nc(N)ncc1F` [Compound 29], the EC50 in the assay on JJN-3 cells was 298 nM; in the assay with LP-1 cells, 3480 nM; with L-363 cells, 277 nM. For the same compound, the figures for the IC50 in assay [1], in assay [2] and in assay [3] were 24 nM, 19 nM and 32 nM, respectively.

Regarding `Nc1ncc(F)c(-n2cc(CCCO)c3cnc(C#CC4(O)CCCC4)cc32)n1` [Compound 30], the EC50 in the assay on JJN-3 cells is 913 nM; with LP-1 cells, 4050 nM; in the assay with L-363 cells it was 1690 nM. The results for the IC50 in assay [1], in assay [2] and in assay [3] were 17 nM, 6.9 nM and 38 nM, respectively.

`CC(C)(O)C#Cc1cc2c(cn1)c(CCC(C)(C)O)cn2-c1ccnc(N)n1` [Compound 31]: the EC50 in the assay with JJN-3 cells turned out to be 358 nM; in the assay with LP-1 cells, 7070 nM; with L-363 cells it was 972 nM. In addition, the IC50 stood at 14 nM in assay [1], 13 nM in assay [2] and 80 nM in assay [3].
